Test results reported in patent US11596632B2, “JAK1 pathway inhibitors for the treatment of gastrointestinal disease” (Incyte Corporation, priority 2018, dated 2023).

How the values were obtained:
[1] = system: patients with plaque psoriasis; assay: Clinical study in patients with plaque psoriasis (sPGA, safety); type: in vivo, human
Procedure: The systemic effects of Compound 1 have been studied in the auto-immune diseases RA and Ps. Inhibition of phosphorylation of STAT3 following stimulation with IL-6, a marker of AK1 inhibition, and TPO, a marker of JAK2 inhibition was measured in both studies. In patients with Ps doses of 100 mg QD, 200 mg QD, 200 mg BID, and 600 mg QD were studied.

[2] = Fecal concentration and excretion after oral sustained release dose; type: in vivo, human
Procedure: The method used for analyzing Compound 1 in human feces is a qualified method. The human fecal samples are collected in 1:1 homogenate at the clinical site [1 part of water (mL): 1 part of faces(g)]. Prior to sample analysis, additional water is added to the sample homogenate to achieve the final ratio of feces to water at 1:19 as calibration standard and QC samples. The final homogenates are processed and analyzed with calibration standards and QC samples. For human homogenate analysis, briefly, 100 μL of the feces homogenate (blanks, QC and study samples) is placed in a test tube. After an aliquot of 20 μL of internal standard is added and mixed, an aliquot of 200 μL of 0.1 M NaHCO3 is added and vortexed. Then 2 mL of MtBE is added and the samples are vortexed. After centrifugation, MtBE layer is transferred to a clean test tube. The samples were then dried under nitrogen at approximately 40° C. An aliquot of 1 mL of reconstitution solution (acetonitrile:water, 50:50, v/v) is then added to each sample and vortexed. Then 10 μL of the sample was diluted with 3 mL reconstitution solution in a clean test tube. The sample is transferred to an autosampler vial and 10 μL is injected into an LC-MS/MS for analysis. The LC-MS/MS analysis is carried out with an AB Sciex API 4000 or API 4000 QTrap mass spectrometer coupled with an HPLC pump and an autosampler. The chromatographic separation is achieved on a Agilent Eclipse Plus C8 50×4.6 mm, 5 μm HPLC column, with gradient elution. The mass spectrometer is operated in positive ESI mode. MRM transition is m/z 554.3→186.2 for Compound 1 and m/z 558.4→190.2 for the internal standard. Peak-area integrations are performed using the Analyst software and concentrations are calculated in Watson LIMS. Concentrations of human feces homogenates are calculated using 8 concentration levels ranging from 1 μg/g to 300 μg/g (1.8 μM to 542 μM) with weighted linear regression, according to the following formula: y=ax+b(weighting factor=1/x^2)
where x=Compound 1 concentration in μg/g in human feces homogenates, y=Peak-area ratio, a=Slope, and b=Intercept.
Methods: Compound 1 concentrations in plasma and feces (colonic surrogate) were determined following a single sustained release 25 mg oral dose (see, e.g., Example B, 25 mg SR composition). Compound 1 concentrations in plasma following a single 100 mg dose were also determined in a separate study (see, e.g., Example C for measuring concentrations of Compound 1 in plasma). Ex vivo study: Colon tissue samples from healthy and UC subjects (2/group) were mounted on a vertical Ussing diffusion chamber. [^14C]Compound 1 was applied to the apical side of the chamber at 100 and 1000 nM and incubated for 1 h. Samples were collected from the donor and receiver sides for determination of Compound 1 concentration. The colonic tissue was snap frozen for quantitative autoradiography.

[3] = Circulating and colon tissue drug concentrations in mice, oral vs intracolonic; type: in vivo, mouse
Source text: Preclinical models of IBD were established in BALB/c mice by intracolonic injection of 2,4,6-trinitrobenzene sulfonic acid (TNBS) or 4-ethoxymethylene-2-phenyl-2-oxazolin-5-one (oxazolone) to trigger an immune response, as described below. Body weight, stool consistency and fecal blood were scored. Additional readouts included colon weight to length ratio and histological evaluation. Blood was collected for pharmacokinetic analysis.
In a further study, quantification of circulating and tissue drug concentrations clearly differentiated the local versus systemic JAK1 target inhibition. […] In contrast, localized Compound 1 delivery was characterized by minimal peak systemic concentrations of approximately 0.04 μM but sustained exposure ≥0.45 μM in the colon tissue, as shown in FIG. 11D. Therefore, strategic targeting or release of JAK1 inhibitors within the inflamed gastrointestinal tissue can potentially achieve improved benefit-risk profiles.

RA patients = assay: Clinical study in rheumatoid arthritis patients (ACR responses, ANC); type: in vivo, human
Procedure: However, the greatest inhibition appeared to be observed following 200 mg BID dosing. Also noteworthy is that the 100 mg QD dose had less TPO induced pSTAT3 inhibition than placebo.

[4] = localized intracolonic delivery (3 mg/kg)

## N#CCC1(n2cc(-c3ncnc4[nH]ccc34)cn2)CN(C2CCN(C(=O)c3ccnc(C(F)(F)F)c3F)CC2)C1 [Compound 1, {1-{1-[3-Fluoro-2-(trifluoromethyl)isonicotinoyl]piperidin-4-yl}-3-[4-(7H-pyrrolo[2,3-d]pyrimidin-4-yl)-1H-pyrazol-1-yl]azetidin-3-yl}acetonitrile]
[1]; 100 mg QD, 200 mg QD, 200 mg BID, 600 mg QD
  mean change from baseline sPGA at Day 28, dose relation: dose-dependent response
[1]; 100 mg QD, n=9
  Day 28 sPGA score, Mean (SD): 2.6 (1.01)
  Day 28 sPGA score, Median: 2.0
  Percent change from baseline in sPGA score at Day 28, Median: −33.3%
[1]; 100 mg QD, n=9, p=0.270 vs placebo
  Percent change from baseline in sPGA score at Day 28, Mean (SD): −22.2 (23.57) Percent
[1]; 200 mg BID (p=0.053) and 600 mg QD (p=0.003)
  change from baseline in sPGA, clinical meaning: clinically meaningful changes from baseline
[1]; 200 mg BID, n=9
  Day 28 sPGA score, Mean (SD): 2.0 (1.00)
  Day 28 sPGA score, Median: 2.0
  Percent change from baseline in sPGA score at Day 28, Median: −33.3%
[1]; 200 mg BID, n=9, p=0.053 vs placebo
  Percent change from baseline in sPGA score at Day 28, Mean (SD): −35.2 (33.79) Percent
[1]; 200 mg QD, n=9
  Day 28 sPGA score, Mean (SD): 2.3 (1.00)
  Day 28 sPGA score, Median: 2.0
  Percent change from baseline in sPGA score at Day 28, Median: −33.3%
[1]; 200 mg QD, n=9, p=0.118 vs placebo
  Percent change from baseline in sPGA score at Day 28, Mean (SD): −29.4 (31.14) Percent
[1]; 600 mg QD, n=11
  Day 28 sPGA score, Mean (SD): 1.8 (0.98)
  Day 28 sPGA score, Median: 2.0
  Percent change from baseline in sPGA score at Day 28, Median: −33.3%
[1]; 600 mg QD, n=11, p=0.003 vs placebo
  Percent change from baseline in sPGA score at Day 28, Mean (SD): −42.4 (26.21) Percent
[1]; psoriasis patients
  neutropenia: No neutropenia was noted
[2]; humans, oral
  administered dose excreted intact as parent compound in the feces: ~30%
[2]; single 25 mg SR dose, feces 0-24 hours
  Maximal fecal concentration, geometric mean: 85.5 nM
[2]; single 25 mg SR dose, feces 0-24 hours, SD 41.4 nM
  Maximal fecal concentration, Mean: 93.4 nM
[2]; single 25 mg dose
  patients with maximum fecal concentrations exceeding the in vitro IC50 for JAK1 inhibition (58 nM): eight of twelve
[2]; sustained release formulation
  dose eliminated as unchanged Compound 1 in the feces: 27.1%
[3]; intracolonic doses
  systemic drug exposure relative to JAK1 IC50: below JAK1 IC50
[3]; [4]
  peak systemic concentrations: approximately 0.04 μM
  sustained exposure in the colon tissue: ≥ 0.45 µM
[3]; oral dosing (30 mg/kg)
  peak circulating drug level: approximately 11 μM
RA patients; 600 mg QD, Day 84 visit
  ACR20, ACR50, and ACR70 responses versus placebo: statistically significant differences in ACR20, ACR50, and ACR70 responses
RA patients; RA patients
  decreased ANC: several cases of decreased ANC but no dose-dependent trend was observed
